Tests used:
[1] = test system: EphA4; assay: ephrin-A1-induced EphA4 clustering assay in cultured hippocampal neurons; format: cell-based; conditions: dose of 50 μM
From the text: FIG. 1. Inhibitory effect of small molecule compounds on EphA4 signaling. Inhibitory activity of 22 selected FDA-approved drugs in ephrin-A1-induced EphA4 clusters in cultured hippocampal neurons. n=4 neuronal cell cultures; *p<0.05 vs. Cont; unpaired Student's t-test.
The inhibitory activity of the 22 drugs listed in Table 1 was examined using an ephrin-A1-induced EphA4 clustering assay in cultured hippocampal neurons.

[2] = target: T1, extracellular domain of mouse EphA4 (interaction with ephrin-A1) (Mus musculus, UniProt Q03137); assay: Dose-response ELISA of the EphA4/ephrin-A1 interaction; format: binding; conditions: read-out: IC50, inhibition of interaction between extracellular domain of mouse EphA4 and ephrin-A1
T1 construct: the extracellular domain of mouse EphA4
T1 sequence (Q03137 20-547 limits assumed): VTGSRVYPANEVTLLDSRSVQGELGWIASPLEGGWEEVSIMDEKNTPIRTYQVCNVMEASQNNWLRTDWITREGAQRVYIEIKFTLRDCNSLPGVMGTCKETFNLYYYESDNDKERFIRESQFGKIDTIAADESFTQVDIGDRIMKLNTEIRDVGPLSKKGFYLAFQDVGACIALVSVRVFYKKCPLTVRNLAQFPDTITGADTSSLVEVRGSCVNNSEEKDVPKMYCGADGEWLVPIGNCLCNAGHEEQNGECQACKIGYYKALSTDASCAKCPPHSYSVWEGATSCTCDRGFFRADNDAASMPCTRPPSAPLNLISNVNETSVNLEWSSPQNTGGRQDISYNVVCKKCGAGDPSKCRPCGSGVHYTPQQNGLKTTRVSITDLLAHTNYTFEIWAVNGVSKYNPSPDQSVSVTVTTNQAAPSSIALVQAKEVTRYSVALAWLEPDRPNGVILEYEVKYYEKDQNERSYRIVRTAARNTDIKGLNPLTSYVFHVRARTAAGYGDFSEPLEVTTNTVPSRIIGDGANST
From the text: FIG. 3. […] Dose-response curve of nilotinib against the interaction of mouse EphA4 with ephrin-A1.
Nilotinib is a kinase inhibitor that targets the following kinases: BCR-ABL, KIT, LCK, EPHA3, EPHA8, DDR1, DDR2, PDGFRB, MAPK11, and ZAK. Nilotinib is predicted to form hydrogen bonds with Q70 in the D-E loop and T104. It also has hydrophobic interactions with F154, V157, 1163, L166, A193, and V195.

Row | IC50 [2] [µM] | Molecule | inhibition of ephrin-A1-induced EphA4 clustering [1] [%]
1 | – | CN1CCC(=C2c3ccccc3C=Cc3ccccc32)CC1 [Cyproheptadine] | 30
2 | 70.7 | Cc1cn(-c2cc(NC(=O)c3ccc(C)c(Nc4nccc(-c5cccnc5)n4)c3)cc(C(F)(F)F)c2)cn1 [Nilotinib] | 30
3 | – | C[C@]12CC[C@H](O)CC1=CC[C@@H]1[C@@H]2CC[C@]2(C)C(c3cccnc3)=CC[C@@H]12 [abiraterone] | 30
4 | – | Retapamulin | 30

Source: patent US12290516B2, “Heterocyclic compounds as EphA4 inhibitors” (The Hong Kong University of Science and Technology, priority 2017, dated 2025)
